Assay results taken from patent US20250099403A1, “IDENTIFICATION OF ACTIVITIES OF GUT MICROBE METABOLITES” (UNIVERSITY OF SOUTH CAROLINA, priority 2023, published 2025).

How the values were obtained:
[1] = tested on: Primary mouse macrophages; assay: inflammatory cytokine expression in primary mouse macrophages, agent alone (RT-qPCR); type: cell-based; conditions: agent by itself, n=3
Description: (§1) Primary mouse macrophages were treated with SoL A (as a representative of SoLs) either alone or together with LPS (an agonist of TLR4) or Pam3CSK4 (an agonist of TLR1/2) and the expression of three inflammatory cytokines was measured (IL-6, TNFα, and IL-1β).
(§2) Preparation and treatment of macrophages. Primary mouse macrophages were prepared by first introducing 3 mL of 3% thioglycolate to mice via intraperitoneal injection. After 3 days, 10 mL of chilled PBS was introduced intraperitoneally to flush out macrophages. The cell suspension was then separated by centrifugation at 300×g for 5 minutes. Cells were seeded in culture dishes containing DMEM with 10% FBS for 1 hour before being washed with serum-free DMEM two times to remove unattached cells. The cells were incubated in serum-free DMEM for 16 hours before treatment. To treat the macrophages, cells were incubated for 6 to 24 hours in DMEM without FBS with addition of LPS (Sigma-Aldrich), Pam3CSK4 (Invivogen), or SoL A. Cells were finally washed twice with Dulbecco's phosphate-buffered saline before being lysed for total RNA or protein extraction.
mRNA extraction and RT-qPCR in macrophage-based assays. […] The quality and quantity of RNA was then determined using a nanodrop and 1000 ng of mRNA from each sample was used for cDNA synthesis using a First-strand cDNA Synthesis System (Marligen Bioscience), qPCRs reactions were prepared in a 20 uL final volume containing Fast Start Universal SYBR Green Master (Rox) (Roche Applied Science), cDNA template, deionized water, and primers and probes for IL-1β, TNFα, IL-6, and the 18S rRNA which was used as a housekeeping gene Cycling conditions were 95° C. for 10 min followed by 40 cycles of 95° C. for 10 seconds, 60° C. for 15 seconds, and 68° C. for 20 seconds, then a melting curve analysis from 60° C. to 95° C. every 0.2° C. was obtained. […] Relative gene expression levels were calculated using the ΔΔCT method and expression levels of 18S were used to normalize the results.

[2] = piroxicam-accelerated Il10-deficient mouse IBD model; type: in vivo
Description: Experimental validation of the predictions of Example 1 were carried out using a mouse model of IBD. […] Stimulation of mucosal Toll-like receptors (TLRs) stemming from this mucosal barrier breakdown was another factor in the selection of this model, as it has been previously shown that SoL A suppresses LPS-induced inflammation and LPS is well-known to activate TLR signaling. […]
Fecal material was collected from IBD 1/10−/−+piroxicam (n=7, female) and pre-IBD control//10−/−mice (n=4, female), extracted metabolites, and the abundance of SoLs was measured by targeted metabolomics using high performance liquid chromatography (HPLC)-high resolution mass spectrometry (HRMS). […] Metabolites with m/z corresponding to major SoLs were detected, specifically SoLs A and B, in all samples tested and their identities were unambiguously determined by HPLC-MS/MS. […]
Peak areas were calculated using TICs obtained after MS/MS fragmentation and used to measure the abundance of SoLs A and B. Significance was determined using Student's t-test. […] Significance was determined using Mann-Whitney U test. […]
Piroxicam-accelerated 1110−/−mouse IBD model and analysis. […] Mice were euthanized at 18 days to collect tissues for assessment and intestinal contents for quantification of SoLs. […] Inflammation scores of colon sections were blindly assessed using an Echo Revolve light microscope and accompanying software. […]

Macrophages = assay: Western blot of TLR4 downstream signaling in LPS-treated macrophages; type: cell-based; conditions: 100 ng/ml LPS, 30 minutes
Description: Macrophages were treated with 100 ng/ml LPS in the presence of increasing concentrations of Sol A or B (from 0 to 20 μM) for 30 minutes. Following treatment, all cellular protein was extracted using MPER lysis buffer (Thermo Scientific). Protein samples were loaded onto SDS-PAGE gels for separation, then transferred to nitrocellulose membranes (Amersham Biosciences). Primary antibodies and HRP-conjugated secondary antibodies (Cell Signaling Technology) were used to detect target proteins. Signal was detected using an ECL kit (Thermo Scientific). […] The housekeeping gene β-Actin was used as a loading control.

MD-2 = biological target: T1, MD-2 (Homo sapiens, UniProt Q9Y6Y9); assay: ELISA-based displacement assay with biotinylated LPS; type: binding
T1 construct: purchased Novus Biologicals
T1 sequence (Q9Y6Y9 19-160): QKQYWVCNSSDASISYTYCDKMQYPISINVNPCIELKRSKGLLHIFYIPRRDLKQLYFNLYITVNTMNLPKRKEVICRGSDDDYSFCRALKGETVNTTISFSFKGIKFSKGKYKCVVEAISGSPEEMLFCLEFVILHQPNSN
Description: To experimentally determine if SoLs A and B bind to MD-2 and to what extent the SoLs compete with LPS for binding to MD-2, an ELISA-based displacement assay was conducted. Taking advantage of biotinylated LPS, which retains the activity of unconjugated LPS, absorbance generated by an HRP-linked streptavidin probe was measured to determine the relative amount of MD-2 that was bound with biotin-LPS as opposed to MD-2 bound with SoL A or B. 0.1, 1.0, and 10 µM concentrations of SOL A or B and 1 ng/ml biotin-LPS were administered to MD-2 in three sequences: 1) Sol first followed by LPS 1 hour later, 2) LPS first followed by Sol 1 hour later, and 3) both SoL A or B and LPS at the same time.
ELISA displacement assay. Solid-phase sandwich ELISA kits were purchased from Invitrogen. The ELISA experiments were performed according to the kit instructions, using 50 nM hMD-2 (Novus Biologicals), 1 ng/mL LPS-EB Biotin (Invivogen), and 0.1, 1.0, and 10 µM purified SoL A. SOL A was added to the assay 1 hour before, 1 hour after, or simultaneously with LPS-EB Biotin. Absorbance was measured at 450 nm using a BioTek microplate reader.

THP-1 monocytes [3] = assay: M1 polarization of THP-1 derived macrophages (RT-qPCR of markers); type: cell-based; conditions: 10 µM SoL A with IFN-γ and LPS, 24 hours, n=3
Description: (§3) THP-1 monocytes were treated with IFN-γ and LPS to induce M1 polarization or IL-4 and IL-1β to induce M2 polarization. Successful induction of M1 and M2 polarization was confirmed by morphology changes and subsequent RT-qPCR quantification of cytokine profiles.
(§4) For all treatments, n=3 and significance was determined using one-way ANOVA: 0.001<p<0.01, *** 0.0001<p<0.001, and **** p<0.0001.
(§5) THP-1 monocytes were maintained in RPMI16 with 10% heat inactivated FBS, 1% Penicillin-Streptomycin-Ampotericin B, and 50 μM 2-mercaptoethanol prior to differentiation. The cells were differentiated into macrophages with 150 nM PMA for 48 hours. M1 polarization was induced by adding 20 ng/ml IFN-γ and […] LPS for 24 hours. M2 polarization was induced by adding 20 ng/ml IL-4 and 20 ng/ml IL-1β for 24 hours. In all tests, 10 µM Sol A was added at the same time as M1 and M2 differentiation agents. After 24 hours of treatment, total RNA was collected, and RT-qPCR was performed as described above.

TLR4 = assay: LPS-induced cytokine expression in primary mouse macrophages (RT-qPCR); type: cell-based; conditions: SoL A together with LPS, p≤0.0001
Description: as §1
Preparation and treatment of macrophages. Primary mouse macrophages were prepared by first introducing 3 mL of 3% thioglycolate to mice via intraperitoneal injection. After 3 days, 10 mL of chilled PBS was introduced intraperitoneally to flush out macrophages. The cell suspension was then separated by centrifugation at 300×g for 5 minutes. […]
mRNA extraction and RT-qPCR in macrophage-based assays. […] The quality and quantity of RNA was then determined using a nanodrop and 1000 ng of mRNA from each sample was used for cDNA synthesis using a First-strand cDNA Synthesis System (Marligen Bioscience), qPCRs reactions were prepared in a 20 uL final volume containing Fast Start Universal SYBR Green Master (Rox) (Roche Applied Science), cDNA template, deionized water, and primers and probes for IL-1β, TNFα, IL-6, and the 18S rRNA which was used as a housekeeping gene Cycling conditions were 95° C. for 10 min followed by 40 cycles of 95° C. for 10 seconds, 60° C. for 15 seconds, and 68° C. for 20 seconds, then a melting curve analysis from 60° C. to 95° C. every 0.2° C. was obtained. […]

peritoneal macrophages = assay: inflammatory cytokine expression in macrophages treated with purified SoL A (qRT-PCR); type: cell-based; conditions: 10UM (FIG. 32 legend)
THP-1 monocytes [4] = assay: M2 polarization of THP-1 derived macrophages (RT-qPCR of markers); type: cell-based; conditions: 10 µM SoL A with IL-4 and IL-1β, 24 hours, n=3
Description: as §3, §4, §5

TLR1/2 = assay: Pam3CSK4-induced cytokine expression in primary mouse macrophages (RT-qPCR); type: cell-based
Description: as §1
On FIG. 16, bars represent mean±standard error. For each treatment, n=3. Significance was determined using Student's t test: * p<0.05, **** p<[…] 0.0001.
as §2, with “To treat the macrophages, cells were incubated for 6 to 24 hours in DMEM without FBS with addition of LPS (Sigma-Aldrich), Pam3CSK4 (Invivogen), or SoL A. Cells were finally washed twice with Dulbecco's phosphate-buffered saline before being lysed for total RNA or protein extraction.” left out
mRNA extraction and RT-qPCR in macrophage-based assays. […] Relative gene expression levels were calculated using the ΔΔCT method and expression levels of 18S were used to normalize the results.

[5] = in vivo inflammation after intraperitoneal injection of SoL A; design: species or system mouse; conditions: 1 mg/kg i.p.
Description: To test whether SoL A can induce inflammation in vivo, mice were treated by intraperitoneal (i.p.) injection of 1 mg/kg of SOL A. At 2 hrs post-injection, FACS analysis of immune cells in the peritoneal exudate was performed.

[6] = SoL added first, LPS 1 hour later, vs LPS first or together, all concentrations 0.1, 1.0, 10 µM, 1 ng/ml biotin-LPS
[7] = moving from low to high concentrations of SoL (0.1, 1.0, 10 µM)

Row | Compound | expression of inflammatory cytokines (IL-6, TNFα, IL-1β) compared to control [1] | LPS-induced IκBα degradation (Macrophages; SoL 0 to 20 μM) | LPS-induced phosphorylation of p38 and ERK1/2 (Macrophages; SoL 0 to 20 μM) | LPS-induced phosphorylation of p38 and ERK1/2 (Macrophages; SoL at 20 µM) | percent absorbance (MD-2 bound with biotin-LPS) (MD-2; [6]) | percent absorbance (MD-2 bound with biotin-LPS) (MD-2; [7]) | also measured
1 | Pam3CSK4 | significant induction |  |  |  |  |  | 
2 | lipopolysaccharide [LPS] | significant induction |  |  |  |  |  | 
3 | CN1C(C(=O)Nc2ccccn2)=C(O)c2ccccc2S1(=O)=O [piroxicam] |  |  |  |  |  |  | histological analysis of mouse distal colon ([2]; 1/10−/− mice, diet with 100 ppm piroxicam, 18 days): induced intestinal inflammation; colon expression of inflammatory markers TNFα, NOS2, IL-6, and IL-1β ([2]; 1/10−/−+piroxicam mice vs control, Mann-Whitney U test): significantly increased
4 | CC(C)CCCCCCCCCCCC(=O)N[C@@H](CS(=O)(=O)O)[C@H](O)CCCCCCCCCCCC(C)C [SoL B, sulfobacin B] |  | concentration-dependently suppressed | reduced LPS-induced phosphorylation of p38 and ERK1/2 in a concentration-dependent manner | almost completely blocked | marked decrease | decreased dramatically | 
5 | CC(C)CCCCCCCCCCC[C@@H](O)CC(=O)N[C@@H](CS(=O)(=O)O)[C@H](O)CCCCCCCCCCCC(C)C [SoL A, sulfobacin A] | mild to moderate effect | concentration-dependently suppressed | reduced LPS-induced phosphorylation of p38 and ERK1/2 in a concentration-dependent manner | almost completely blocked | marked decrease | decreased dramatically | production of M1-polarized macrophage markers IL-6, CXCL10, IL-12β, and TNFα (THP-1 monocytes [3]): significantly reduced; expression of all three cytokines (IL-6, TNFα, IL-1β) induced by LPS (TLR4): significantly suppress; expression levels of pro-inflammatory cytokines IL-1a, IL-1B, IL-6, and TNFα (peritoneal macrophages): significantly increased; effect on M2 polarization (marker expression) (THP-1 monocytes [4]): mostly non-significant effect; Pam3CSK4-induced IL-6 and TNFα expression (TLR1/2; SoL A together with Pam3CSK4): inhibited Pam3CSK4-induced IL-6 and TNFα to a smaller extent; IL-1β expression induced by Pam3CSK4 (TLR1/2; SoL A together with Pam3CSK4, p≤0.05): increasing; monocytes and neutrophils in the peritoneal exudate ([5]; 2 hrs post-injection, FACS): more monocytes (Mono) and neutrophils (Neut) were recruited; serum IL-6 levels ([5]; ELISA): significantly and consistently increased
